Drawing on patent publication US20060045953A1 (priority 2004, published 2006), this text covers EC50 for 34 molecules.

For the assay, the target named is T1, hT1R1/hT1R3 umami receptor (Homo sapiens, UniProt Q7RTX0+Q7RTX1).
T1 construct: expressed in transfected cells; host or cells: HEK293 derivative stably expressing Gα15, clone I-17, expression induced with mifepristone
T1 sequence (Q7RTX1 21-841): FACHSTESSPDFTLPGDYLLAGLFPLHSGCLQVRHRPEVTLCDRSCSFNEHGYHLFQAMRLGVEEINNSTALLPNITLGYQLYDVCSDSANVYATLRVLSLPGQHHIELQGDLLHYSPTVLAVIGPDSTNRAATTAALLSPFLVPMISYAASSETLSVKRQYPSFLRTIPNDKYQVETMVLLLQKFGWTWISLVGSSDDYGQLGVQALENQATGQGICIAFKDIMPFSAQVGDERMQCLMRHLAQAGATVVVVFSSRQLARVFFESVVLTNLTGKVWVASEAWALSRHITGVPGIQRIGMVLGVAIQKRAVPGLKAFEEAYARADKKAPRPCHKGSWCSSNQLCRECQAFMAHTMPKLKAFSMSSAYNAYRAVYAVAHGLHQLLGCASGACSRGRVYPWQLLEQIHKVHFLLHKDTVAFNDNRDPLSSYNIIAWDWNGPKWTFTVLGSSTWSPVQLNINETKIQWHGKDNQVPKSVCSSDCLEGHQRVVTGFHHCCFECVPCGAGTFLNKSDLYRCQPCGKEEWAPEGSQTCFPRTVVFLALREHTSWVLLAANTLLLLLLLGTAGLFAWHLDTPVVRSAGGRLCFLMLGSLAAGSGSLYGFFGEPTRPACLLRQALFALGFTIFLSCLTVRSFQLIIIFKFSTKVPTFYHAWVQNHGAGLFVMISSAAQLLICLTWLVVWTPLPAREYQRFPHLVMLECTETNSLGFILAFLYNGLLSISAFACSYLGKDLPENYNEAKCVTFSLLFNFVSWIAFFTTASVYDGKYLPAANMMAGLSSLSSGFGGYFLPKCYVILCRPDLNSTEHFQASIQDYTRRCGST
T1 sequence (Q7RTX0 21-852): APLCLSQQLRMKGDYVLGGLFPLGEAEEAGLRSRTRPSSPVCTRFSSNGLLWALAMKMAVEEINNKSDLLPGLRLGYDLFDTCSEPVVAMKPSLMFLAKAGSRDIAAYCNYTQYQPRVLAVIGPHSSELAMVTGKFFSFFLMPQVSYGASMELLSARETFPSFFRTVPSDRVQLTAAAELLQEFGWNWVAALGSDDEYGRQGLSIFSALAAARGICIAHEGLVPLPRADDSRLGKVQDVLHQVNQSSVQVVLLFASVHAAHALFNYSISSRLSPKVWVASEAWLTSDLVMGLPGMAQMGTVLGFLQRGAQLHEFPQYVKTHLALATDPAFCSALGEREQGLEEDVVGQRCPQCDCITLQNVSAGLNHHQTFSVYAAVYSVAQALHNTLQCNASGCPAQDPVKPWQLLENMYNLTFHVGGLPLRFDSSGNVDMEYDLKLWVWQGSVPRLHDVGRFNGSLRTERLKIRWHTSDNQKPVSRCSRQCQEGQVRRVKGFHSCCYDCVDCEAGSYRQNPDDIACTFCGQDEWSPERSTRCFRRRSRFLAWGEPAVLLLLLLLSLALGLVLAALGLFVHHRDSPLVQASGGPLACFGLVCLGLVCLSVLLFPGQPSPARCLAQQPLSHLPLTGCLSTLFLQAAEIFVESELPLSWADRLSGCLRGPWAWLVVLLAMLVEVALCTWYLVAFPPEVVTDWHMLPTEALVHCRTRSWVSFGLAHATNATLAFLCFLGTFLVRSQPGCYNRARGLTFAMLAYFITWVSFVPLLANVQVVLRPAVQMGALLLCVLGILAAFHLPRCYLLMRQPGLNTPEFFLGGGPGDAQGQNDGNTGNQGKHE
The assay is described as follows: In vitro hT1R1/hT1R3 umami taste receptor activation assay (FLIPR, dose response). The class given is cell-based. From the text:
In order to identify new savory flavoring agents and enhancers, including compounds with savory agonist and enhancer activities (dual activity), the compounds of Formula (I) were screened in primary assays and secondary assays including compound dose response and enhancement assay. In a primary assay for potential ability to modulate umami taste, amide compounds of Formula (I) that can be either savory flavoring agents in their own right or flavor enhancers of MSG are identified and scores of their activities are given as percentage of the maximum MSG intensity (%). In compound dose response, an EC50 is calculated to reflect the potency of the compound as a savory agonist or enhancer.
An HEK293 cell line derivative (See e.g., Chandrashekar, et al., Cell (2000) 100: 703-711) which stably expresses Gα15 and hT1R1/hT1R3 under an inducible promoter (see WO 03/001876 A2) was used to identify compounds with savory tasting properties.
For dose-responses analysis, stimuli were presented in duplicates at 10 different concentrations ranging from 1.5 nM to 30 μM. Activities were normalized to the response obtained with 60 mM monosodium glutamate, a concentration that elicits maximum receptor response. […] Identical results were obtained when analyzing the dose-response data using commercially available software for non-linear regression analysis such as GraphPad PRISM (San Diego, Calif.).

The mark [1] stands for this setting: Table D, Umami Acrylamides, read-out: Umami EC50.
Setting [2] is: Table A, Umami Amides, read-out: Umami EC50.
[3] abbreviates: read-out: EC50 for activation of a hT1R1/hT1R3 umami receptor expressed in an HEK293 cell line.
The mark [4] stands for this setting: Table C, Umami Ureas, read-out: Umami EC50.

Molecules are shown by their SMILES. Like-named read-outs stand apart in the source and are kept apart here.

Take `CCCC(CCC)NC(=O)/C=C/c1cccs1` [Example D6, N-(1-Propyl-butyl)-3-thiophen-2-yl-acrylamide]: under setting [1], the EC50 was 750 nM.

Regarding `COC(=O)C(CC(C)C)NC(=O)c1cc2ccccc2s1` (stereo in doubt) [Example A4, 2-[(Benzo[b]thiophene-2-carbonyl)-amino]-4-methyl-pentanoic acid methyl ester], under setting [2], the EC50 is 400 nM.

Take `COc1ccc2oc(C(=O)NC(C(C)C)C(C)C)cc2c1` [Example A17, N-(2,4-dimethylpentan-3-yl)-5-methoxybenzofuran-2-carboxamide]: under setting [2], the EC50 came to 1200 nM.

Regarding `CCCC(CCC)NC(=O)c1ccc(-c2cnco2)cc1` [Example A128, N-(heptan-4-yl)-4-(oxazol-5-yl)benzamide], the EC50 under setting [2] turned out to be 400 nM.

For `CCCC(NC(=O)c1ccc(OC)c(C)c1)c1ccc(OC)cc1` (stereo not shown) [Example 54, 4-methoxy-N-(1-(4-methoxyphenyl)butyl)-3-methylbenzamide], the EC50 under setting [3] was 3140 nM.

For the molecule `COc1ccc2c(c1)CCC2NC(=O)c1cccc(OC)c1N` (stereo not shown) [Example A126, 2-amino-3-methoxy-N-(5-methoxy-2,3-dihydro-1H-inden-1-yl)benzamide], under setting [2], the EC50 amounted to 40 nM.

As for `CCC(CC)NC(=O)Nc1ccc(OC)cc1OC` [Example C13, 1-(2,4-dimethoxyphenyl)-3-(pentan-3-yl)urea], the EC50 under setting [4] was found to be 1720 nM.

As for `COC(=O)[C@@H](CC(C)C)NC(=O)c1ccc2ncccc2c1` [Example A37, (R)-methyl 4-methyl-2-(quinoline-6-carboxamido)pentanoate], under setting [2], the EC50 was 1500 nM.

`CCCC(CCC)NC(=O)Nc1ccc2c(c1)OCO2` [Example C27, 1-(benzo[d][1,3]dioxol-5-yl)-3-(heptan-4-yl)urea]: the EC50 under setting [4] is 540 nM.

With `CC1CCCCC1NC(=O)Nc1ccccc1Cl` (stereo not shown) [Example C3, 1-(2-chlorophenyl)-3-(2-methylcyclohexyl)urea], the EC50 under setting [4] worked out at 520 nM.

Regarding `CC1CCCC(NC(=O)c2ccc3c(c2)OCO3)C1C` (stereo not shown) [Example 4, N-(2,3-dimethylcyclohexyl)benzo[d][1,3]dioxole-5-carboxamide], the EC50 under setting [3] stood at 450 nM.

Consider `O=C(NC1CCc2ccccc21)c1ccc2c(c1)OCO2` (stereo not shown) [Example 118, Benzo[1,3]dioxole-5-carboxylic acid indan-1-ylamide], for which the EC50 under setting [3] is 1200 nM.

On to `CCCCC(CCCC)NC(=O)c1ccc2c(c1)OCO2` [Example A41, N-(nonan-5-yl)benzo[d][1,3]dioxole-5-carboxamide], for which, under setting [2], the EC50 is 700 nM.

As to `CCCC(CC(C)C)NC(=O)c1ccc2nc(C)oc2c1` (stereo not shown) [Example A24, 2-methyl-N-(2-methylheptan-4-yl)benzo[d]oxazole-6-carboxamide], under setting [2], the EC50 amounted to 1120 nM.

In the case of `Cc1ccc(NC(=O)N[C@@H](C)C(C)C)c(Cl)c1` [Example C23, (S)-1-(2-chloro-4-methylphenyl)-3-(3-methylbutan-2-yl)urea], the EC50 under setting [4] was determined as 380 nM.

Take `COc1ccc([C@@H](C)NC(=O)c2ccc(OC)c(Cl)c2)cc1` [Example A89, (R)-3-chloro-4-methoxy-N-(1-(4-methoxyphenyl)ethyl)benzamide]: the EC50 under setting [2] was found to be 600 nM.

Regarding `CCCC(CCC)NC(=O)c1ccc(OC)cc1O` [Example A101, N-(heptan-4-yl)-2-hydroxy-4-methoxybenzamide], the EC50 under setting [2] was determined as 1160 nM.

Regarding `CCCC(CCC)NC(=O)c1ccc2c(c1)OCCCO2` [Example 24, N-(heptan-4-yl)-3,4-dihydro-2H-benzo[b][1,4]dioxepine-7-carboxamide], the EC50 under setting [3] was 6400 nM.

With `O=C(NC1CCCc2ccccc21)c1ccc2c(c1)OCO2` (stereo not shown) [Example 7, N-(1,2,3,4-tetrahydronaphthalen-1-yl)benzo[d][1,3]dioxole-5-carboxamide], the EC50 under setting [3] was determined as 710 nM.

`CCCC(CC)NC(=O)c1ccc(SC)c(C)c1` (stereo not shown) [Example A54, N-(hexan-3-yl)-3-methyl-4-(methylthio)benzamide]: the EC50 under setting [2] worked out at 120 nM.

With `CCCC(NC(=O)c1ccc(OC)c(C)c1)c1ccccn1` (stereo not shown) [Example 114, 4-Methoxy-3-methyl-N-(1-pyridin-2-yl-butyl)-benzamide], under setting [3], the EC50 was 1540 nM.

For the molecule `CCCC(CCC)NC(=O)/C=C/c1ccc(OC)c(OC)c1` [Example 87, 3-(3,4-Dimethoxy-phenyl)-N-(1-propyl-butyl)-acrylamide], the EC50 under setting [3] worked out at 970 nM.

Consider `O=C(NCCc1ccccn1)C(=O)NCc1ccccc1Cl` [Example 136, N-(2-chlorobenzyl)-N′-(2-(pyridin-2-yl)ethyl)oxalamide], for which, under setting [3], the EC50 was 10 nM.

Regarding `CCCC(CCC)NC(=O)c1ccc(OCC)cc1` [Example A68, 4-ethoxy-N-(heptan-4-yl)benzamide], the EC50 under setting [2] worked out at 320 nM.

As for `COC(=O)[C@@H](CC(C)C)NC(=O)c1ccc(F)c(C)c1` [Example 66, (R)-methyl 2-(4-fluoro-3-methylbenzamido)-4-methylpentanoate], the EC50 under setting [3] came out at 320 nM.

For `CCCC(CCC)NC(=O)c1ccc2nc(C)oc2c1` [Example 46, 2-Methyl-benzooxazole-6-carboxylic acid (1-propyl-butyl)-amide], the EC50 under setting [3] worked out at 2100 nM.

In the case of `CCC(NC(=O)Nc1ccc(Cl)cc1Cl)c1ccccc1` (stereo not shown) [Example C2, 1-(2,4-dichlorophenyl)-3-(1-phenylpropyl)urea], the EC50 under setting [4] stood at 490 nM.

Consider `CCCC(CCC)NC(=O)c1ccc(C)s1` [Example A38, 5-Methyl-thiophene-2-carboxylic acid (1-propyl-butyl)-amide], for which, under setting [2], the EC50 was found to be 1220 nM.

For the molecule `CCOc1ccc(/C=C/C(=O)N[C@@H](COC)CC(C)C)cc1` [Example D8, (R,E)-3-(4-ethoxyphenyl)-N-(1-methoxy-4-methylpentan-2-yl)acrylamide], under setting [1], the EC50 came out at 940 nM.

Turning to `CCOC(=O)[C@@H]1CCCC[C@H]1NC(=O)c1cc2cc(OC)ccc2o1` [Example A15, (1R,2R)-ethyl 2-(5-methoxybenzofuran-2-carboxamido)cyclohexanecarboxylate], the EC50 under setting [2] is 1140 nM.

Turning to `CSc1ccc(C(=O)NC(C(C)C)C(C)C)cc1C` [Example A88, N-(2,4-dimethylpentan-3-yl)-3-methyl-4-(methylthio)benzamide], under setting [2], the EC50 is 550 nM.

On to `CCCC(CCC)NC(=O)c1ccc2[nH]cnc2c1` [Example 38, N-(heptan-4-yl)-1H-benzo[d]imidazole-5-carboxamide], for which the EC50 under setting [3] worked out at 18600 nM.

For the molecule `CCCC(CCC)NC(=O)c1cc2ccccc2n1C` [Example 37, N-(heptan-4-yl)-1-methyl-1H-indole-2-carboxamide], the EC50 under setting [3] came to 1790 nM.

`CCOc1ccc(C(=O)NC(CC)CC)cc1C` [Example A64, 4-ethoxy-3-methyl-N-(pentan-3-yl)benzamide]: under setting [2], the EC50 came to 260 nM.
